# Data from patent US20080167532A1, “ASSESSING CANCER TREATMENT RESPONSIVENESS” (Mayo Foundation for Medical Education and Research, priority 2006, published 2008).
# Legend:
# [1] = test system: ATC tumors implanted into athymic nude mice; assay: Affymetrix Plus 2.0 array, nucleic acid expression in DRO tumors implanted into athymic nude mice; format: in vivo
# Protocol: Affymetrix Plus 2.0 arrays were used to identify nucleic acids altered between control vehicle-treated and RS5444-treated ATC cells from cell culture and tumors implanted ectopically into athymic nude mice. Cells in culture were treated with a single dose of 10 nM RS5444 for either 2, 6, or 24 hours. Animals were treated with 0.025% RS5444 after implantation of 1×10^6 DRO cells. Animals were fed a diet including 0.025% RS5444 for 35 days, and tumor volume was measured weekly. Tumor tissues were removed, RNA was isolated, and nucleic acid expression was analyzed. Examples of some nucleic acids, the expression of which was altered in both the animal derived tumors and cells in culture, are presented in Table 1. Some of the nucleic acids regulated by PPARγ in ATC cells (e.g., BMP2, MMP14, ANGPTL4, and ITGA5) are secreted polypeptides (Table 1).
# [2] = test system: DRO and ARO tumor tissues; assay: Western blot of DRO and ARO tumor tissues from athymic nude mice; format: in vivo
# Protocol: RhoB and p21^WAF1/CIP1 polypeptide expression also was examined in DRO and ARO tumor tissues removed from athymic nude mice following 35 days of treatment with vehicle control (−) or 0.025% RS5444 in the diet. Beta-actin was used as a normalization control to ensure even loading of total polypeptide in all lanes.
# Suspensions of 1×10^6/0.1 mL DRO or ARO cells in RPMI medium were injected subcutaneously in one flank of 3 to 4 week old athymic female nude mice. Mice were changed to specialized diets 1 week after tumor implantation and randomly assigned to diets consisting of either 0.025% RS5444 or sham control (Research Diets). Mice weighed between 20-25 grams and consumed on average 4 grams of food per day (1 mg/day of RS5444). Tumors were measured every 3 to 4 days for 35 days with calipers and tumor volumes were calculated by the formula: 0.5236(a×b×c), where a is the shortest diameter, b is the diameter perpendicular to a, and c is the diameter height.
# Cells were collected and lysed in RIPA buffer containing 50 mM Tris, 5 mM EDTA, 150 mM NaCl, 0.1% SDS, 0.5% Deoxycholate, 1% NP40, and protease inhibitor cocktail (Roche) followed by centrifugation. Excised tumor tissues were lysed in 50 mM Tris pH 8.0+1% SDS. Collected supernatants were, analyzed for protein concentration using Pierce's BCA assay, with 25 μg protein loaded per gel lane (Invitrogen) with later transfer to Immobilon-P membranes. The membranes were hybridized with antibodies (Santa Cruz, Cell Signaling, Sigma-Aldrich, St. Louis Mo.) as indicated overnight at 4° C. followed by treatment with species-specific horseradish peroxidase IgG (Jackson labs) for 45 minutes at room temperature. Detection was performed using Supersignal West Pico chemoluminescence kit (Pierce). Quantification of bands was performed in triplicate using Image Quant 5.2 (Molecular Dynamics, Sunnyvale Calif.).
# PPARγ = target: T1, PPARγ (Homo sapiens, UniProt P37231); assay: PPRE3-tk-luc reporter (dual luciferase) assay in DRO cells; format: cell-based; design: endogenous in cells; host or cells: DRO90-1 (DRO) human anaplastic thyroid carcinoma cells; conditions: DRO cells, PPRE3-tk-luc reporter, 24 hours; read-out: EC50, concentration at which 50% maximal transcriptional response occurs
# T1 sequence (P37231 1-505): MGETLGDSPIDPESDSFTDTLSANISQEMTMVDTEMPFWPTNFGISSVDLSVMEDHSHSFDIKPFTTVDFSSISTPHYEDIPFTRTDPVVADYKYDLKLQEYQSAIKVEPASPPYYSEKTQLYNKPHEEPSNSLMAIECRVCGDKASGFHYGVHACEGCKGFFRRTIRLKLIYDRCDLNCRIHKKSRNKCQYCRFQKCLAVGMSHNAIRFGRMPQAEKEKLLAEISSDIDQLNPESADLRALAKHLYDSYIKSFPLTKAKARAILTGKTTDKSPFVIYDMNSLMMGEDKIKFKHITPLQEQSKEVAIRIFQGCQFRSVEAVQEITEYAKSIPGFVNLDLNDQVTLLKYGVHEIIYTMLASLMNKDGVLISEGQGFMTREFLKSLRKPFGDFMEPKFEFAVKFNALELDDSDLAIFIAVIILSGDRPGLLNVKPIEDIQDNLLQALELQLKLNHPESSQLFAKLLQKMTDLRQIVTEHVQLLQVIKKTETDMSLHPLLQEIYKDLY
# Protocol: The effects of PPARγ agonists on DRO cells were investigated. […] Firefly luciferase activity was normalized to renilla […] activity (RLU) and plotted as mean values ±S.D. (FIG. 3A).
# Cells were transfected with siRNA for 72 hours followed by transfected with a PPRE3-tk-luc reporter and treatment with 10 nM RS5444 for 24 hours. […] Cotransfection with renilla luciferase allowed for normalization to relative light units (RLU).
# Cells were plated in 6-well culture plates at initial concentrations of 2×10^5 cells/well. After overnight incubation, cells were transfected with PPRE/luc and CMV/renilla luciferase plasmid using Lipofectamine 2000 (Invitrogen), and after 24 hours, cells were treated with PPAR-γ agonists at indicated concentrations. After 24 hours of drug treatments, cells were washed with PBS and lysed in 1× reporter lysis buffer (Roche), and luciferase activity was measured with a Dual Luciferase assay kit (Promega, Madison Wis.) with a luminometer (Veritas/Turner Biosystems). The enzyme activity was normalized for efficiency of transfection on the basis of renilla activity levels and reported as relative light units (RLU).
# [3] = DRO and ARO tumors, 0.025% in diet for 35 days
smiles,measurement,setting,value
Cc1cc(Oc2ccc3nc(COc4ccc(CC5SC(=O)NC5=O)cc4)n(C)c3c2)cc(C)c1N (centres unmarked) [RS5444],"Fold change in vivo, ADRB1","[1]; ADRB1, 0.025% in diet for 35 days",−2 fold
same,"Fold change in vivo, ANGPTL4","[1]; ANGPTL4, 0.025% in diet for 35 days",2 fold
same,"Fold change in vivo, BMP2","[1]; BMP2, 0.025% in diet for 35 days",3.8 fold
same,"Fold change in vivo, HR","[1]; HR, 0.025% in diet for 35 days",1.5 fold
same,"Fold change in vivo, IL1B","[1]; IL1B, 0.025% in diet for 35 days",5.6 fold
same,"Fold change in vivo, ITGA5","[1]; ITGA5, 0.025% in diet for 35 days",1.9 fold
same,"Fold change in vivo, LMAN1","[1]; LMAN1, 0.025% in diet for 35 days",−4.3 fold
same,"Fold change in vivo, MMP14","[1]; MMP14, 0.025% in diet for 35 days",2.5 fold
same,"Fold change in vivo, RhoB","[1]; RhoB, 0.025% in diet for 35 days",2 fold
same,RhoB polypeptide in tumors (Western blot),"[2]; ATC tumors from mice, 4 weeks of 0.025% in diet",elevated
same,RhoB polypeptide expression in tumors,[2]; [3],elevated
same,cyclin E levels in tumors,[2]; [3],down-regulated
same,p21WAF1/CIP1 polypeptide expression in tumors,[2]; [3],elevated
same,EC50,PPARγ,~1 nM
